Reference: patent US20020045780A1, “Biologically active spermidine analogues, pharmaceutical compositions and methods of treatment” (priority 1997, published 2002)
Entries after “also recorded” stand apart in the source; their conditions may differ. Counter-ions that a name gives are not always drawn. Like-named read-outs stand apart in the source and are kept apart here.

Key:
[1] = system: L1210 cells; experiment: Polyamine pool analysis in L1210 cells; assay type: cell-based, murine; settings: for Put / Spd / activity at 100 µM / activity at 500 µM / activity at 0.9 µM / activity at 4.5 µM: % of untreated control; for Put / Spd: Trihydrochloride; for activity at 100 µM / activity at 500 µM / activity at 0.9 µM / activity at 4.5 µM: Mus musculus; for Analogue: intracellular amount
Procedure: The following guidelines were adopted for studying the impact of the analogues on polyamine pools (Table 2). The measurements were made after a 48-hour exposure to the analogue, and two different concentrations of analogue were evaluated in each case.
(§1) The cells were washed twice with cold RPMI-1640, and the pellet was treated with 0.6 N HClO4 (1 ml/10^7 cells). Polyamine contents of the perchloric acid extracts were quantitated by HPLC of the DANSYL derivatives [Bergeron et al, J. Med. Chem., Vol. 37, supra].

[2] = system: S-adenosylmethionine decarboxylase (AdoMetDC); experiment: AdoMetDC activity in treated L1210 cells; assay type: cell-based, murine; settings: L1210, 1 μM at 6 hours
Procedure: (§2) On the basis of these studies, it was elected to evaluate the impact of the triamines on ODC and AdoMetDC at 4 and 6 hours, respectively.
(§3) ODC and AdoMetDC activities were determined as ^14CO2 released from [^14C]-carboxyl-labeled L-ornithine [Seely et al, “Ornithine Decarboxylase (Mouse Kidney),” Methods Enzymol., Vol. 94, pages 158-161 (1983)] or S-adenosyl-L-methionine [Pegg et al, “S-Adenosylmethionine Decarboxylase (Rat Liver),” Methods Enzymol., Vol. 94, pages 234-239 (1983)], respectively. Included in each assay were untreated L1210 cells as controls, as well as cells treated with DEHSPM, a drug having a known reproducible effect on each enzyme, as positive controls.

[3] = system: polyamine transport apparatus; experiment: Competitive uptake determination: inhibition of [3H]spermidine transport into L1210 cells; assay type: cell-based, murine; settings: analogue inhibition of spermidine transport
Procedure: The ability of the norspermidines, spermidines, homospermidines, 4,5- and 5,5-triamines to compete with radiolabeled SPD for uptake was evaluated (Table 1). The general trend is that the terminally alkylated triamines have higher Ki values than the unalkylated triamines and are thus less easily taken up by the cell. […] This is not completely true with the norspermidines and the 5,5 triamines. The relationship holds with methyl and ethyl but not for the propyl of the latter two systems. Finally, the number of methylenes separating the amines plays a role in determining polyamine uptake properties. In general the effectiveness with which the analogues compete for uptake is spermidines≈homospermidines>4,5 triamines>5,5 triamines>norspermidine.
The polyamine derivatives were studied for their ability to compete with [^3H]-SPD for uptake into L1210 cells [Bergeron et al, J. Med. Chem., Vol. 37, supra]. Lineweaver-Burk plots indicated a simple competitive inhibition with respect to SPD.

[4] = system: L1210 cells; experiment: L1210 growth inhibition, IC50 determination; assay type: cell-based, murine; settings: Mus musculus
Procedure: Murine L1210 leukemia cells (ATCC CCL 219) were maintained in logarithmic growth in RPMI-1640 medium containing 10% fetal calf serum or a semi-synthetic equivalent, NuSerum, 2% HEPES-MOPS buffer and 1 mM aminoguanidine.

[5] = system: spermidine/spermine acetyltransferase (SSAT); experiment: SSAT activity in treated L1210 cells; assay type: cell-based, murine; settings: L1210, 10 μM at 48 hours (triamine analogues)
Source text: Spermidine/spermine N^1-acetyltransferase activity was based on quantitation of [^14C]-N^1-acetylspermidine formed by acetylation of SPD with [^14C] acetyl coenzyme A according to the method of Libby et al [Biochem. Pharmacol., Vol. 38, supra]. Cells treated with DENSPM were positive controls.

[6] = system: ornithine decarboxylase (ODC); experiment: ODC activity in treated L1210 cells; assay type: cell-based, murine; settings: L1210, 1 μM at 4 hours
Procedure: as §2, §3

[7] = system: L1210 cells; experiment: Metabolic transformation of polyamine analogues by L1210 cells; assay type: in vitro ADME, murine; settings: 48 hours, 100 μM analogue
Procedure: as §1

[8] = system: L1210 cells; settings: intracellular amount, 48 hours, cited from earlier work
[9] = 500 μM, 48 hours, listed as (4,5)
[10] = L1210, 48 h, 100 μM, read-out: Put
[11] = L1210, 48 h, 100 μM, read-out: Spd
[12] = L1210, 48 h, 100 μM, read-out: Spm
[13] = L1210, 48 h, 500 μM, read-out: Put
[14] = L1210, 48 h, 500 μM, read-out: Spd
[15] = L1210, 48 h, 500 μM, read-out: Spm
[16] = L1210, 48 h, L1210, 48 hour exposure, read-out: IC50 48 hour
[17] = L1210, 96 h, L1210, 96 hour exposure, read-out: IC50 96 hour
[18] = 500 μM, 48 hours, listed as (5,5)

| SMILES | activity at 100 µM [1, 10] | activity at 100 µM [1, 11] | activity at 100 µM [1, 12] | activity at 500 µM [1, 13] | activity at 500 µM [1, 14] | activity at 500 µM [1, 15] | Analogue ([1]; 100 μM, 48 hours) | Analogue ([1]; 500 μM, 48 hours) | AdoMetDC activity, percent of untreated control [2] | Ki [3] | IC50 [4, 16] | IC50 [4, 17] | SSAT activity, percent of untreated control [5] | ODC activity, percent of untreated control [6] | other results |
| --- | --- | --- | --- | --- | --- | --- | --- | --- | --- | --- | --- | --- | --- | --- | --- |
| NCCCCCNCCCCN [4,5-Triamine, 1,6,12-Triazadodecane Trihydrochloride] | 0% | 1% | 53% | 0% | 0% | 35% | 3.02 nmol/10^6 cells | 3.20 nmol/10^6 cells | 57% of untreated control | 1.4 µM | > 100 µM | 0.15 to 0.2 µM | 410% of untreated control | 19% of untreated control | Put [1, 9]: below detectable level; Spd [1, 9]: below detectable level |
| NCCCCCNCCCCCN [5,5-Triamine, 1,7,13-Triazatridecane Trihydrochloride] | 0% | 0% | 33% | 0% | 0% | 20% | 2.58 nmol/10^6 cells | 2.50 nmol/10^6 cells | 88% of untreated control | 13.8 µM | ~100 µM | 0.3 to 0.5 µM | 90% of untreated control | 16% of untreated control | Put [1, 18]: below detectable level; Spd [1, 18]: below detectable level |
| CCCNCCCCNCCCNCCC [DPSPD, N^1,N^8-Dipropylspermidine Trihydrochloride] | 6% | 35% | 135% | 0% | ~10% | 99% | 3.26 nmol/10^6 cells | 3.69 nmol/10^6 cells | – | 25.6 µM | > 100 µM | 30 to 35 µM | 1030% of untreated control | 75% of untreated control | Parent drug as % of total drug in the cell [7]: 90.1%; Parent drug in L1210 cells [7]: 3260 pmols/10^6 |
| NCCCCNCCCCN [HSPD, Homospermidine Trihydrochloride] | – | – | – | – | – | – | 3.58 nmol/10^6 cells | 4.44 nmol/10^6 cells | 54% of untreated control | 3.4 µM | > 100 µM | 1.7 to 4 µM | 430% of untreated control | 11% of untreated control | activity at 100 µM ([1]; L1210, 100 μM, 48 hours, read-out: Put): 0%; activity at 100 µM ([1]; L1210, 100 μM, 48 hours, read-out: Spd): 4%; activity at 100 µM ([1]; L1210, 100 μM, 48 hours, read-out: Spm): 32%; activity at 500 µM ([1]; L1210, 500 μM, 48 hours, read-out: Put): 0%; activity at 500 µM ([1]; L1210, 500 μM, 48 hours, read-out: Spd): 2%; activity at 500 µM ([1]; L1210, 500 μM, 48 hours, read-out: Spm): 21% |
| CCNCCCNCCCN [MENSPD, monoethylnorspermidine] | – | – | – | – | – | – | – | – | 58% of untreated control | 34 µM | > 100 µM | > 100 µM | 390% of untreated control | 42% of untreated control | Parent drug as % of total drug in the cell [7]: 78.2%; Parent drug in L1210 cells [7]: 3051 pmols/10^6; Elaboration to tetraamine (result in words) ([7]; listed as ME-[3,3]): no evidence of a tetraamine elaboration metabolite; also recorded: no elaboration of N-Monoalkyl [3,3] |
| CCNCCCNCCCCNCCCN [MESPM] | – | – | – | – | – | – | – | – | – | – | – | – | – | – | Analogue, corresponding tetraamine (in parentheses) ([8]; 100 μM): (1.24) nmol/10^6 cells; Analogue, corresponding tetraamine (in parentheses) ([8]; 500 μM): (1.23) nmol/10^6 cells |
| CCCNCCCCNCCCCN [MPHSPD, N^1-Propylhomospermidine Trihydrochloride] | 0% | 2% | 82% | 0% | 0% | 66% | 5.16 nmol/10^6 cells | 5.86 nmol/10^6 cells | 59% of untreated control | 5 µM | 100 µM | 0.5 to 0.7 µM | 570% of untreated control | 20% of untreated control | – |
| NCCCNCCCN [NSPD, N—(3-aminopropyl)-1,3-propanediamine, reference compound] | – | – | – | – | – | – | – | – | 62% of untreated control | 7.2 µM | 0.9 µM | 0.5 µM | 150% of untreated control | 11% of untreated control | activity at 0.9 µM ([1]; L1210, 0.9 μM, 48 hours, read-out: Put): 38%; activity at 0.9 µM ([1]; L1210, 0.9 μM, 48 hours, read-out: Spd): 44%; activity at 0.9 µM ([1]; L1210, 0.9 μM, 48 hours, read-out: Spm): 113%; activity at 4.5 µM ([1]; L1210, 4.5 μM, 48 hours, read-out: Put): 0%; activity at 4.5 µM ([1]; L1210, 4.5 μM, 48 hours, read-out: Spd): 12%; activity at 4.5 µM ([1]; L1210, 4.5 μM, 48 hours, read-out: Spm): 83%; Analogue ([1]; 0.9 μM, 48 hours): 1.09 nmol/10^6 cells; Analogue ([1]; 4.5 μM, 48 hours): 2.14 nmol/10^6 cells |
